Tests used:
Conditions in all cases: 72 h
[1] = system: Caco-2; experiment: cell viability relative to DMSO; higher = less toxic
[2] = system: HepG2; experiment: as above
[3] = system: Calu-3; experiment: as above
[4] = system: Caco-2; experiment: relative viability EC50 (midpoint between 100% and the lowest measured viability); higher = less toxic
[5] = system: HepG2; experiment: as above
[6] = system: Calu-3; experiment: as above
[7] = system: Caco-2; experiment: drug sensitivity score (DSS) for viability; higher = more toxic; extreme values may be limits of the assay
[8] = system: HepG2; experiment: as above
[9] = system: Calu-3; experiment: as above
[10] = system: Vero E6; experiment: cell viability relative to DMSO; higher = less toxic
[11] = system: U2OS; experiment: as above
[12] = system: U2OS; experiment: relative viability EC50 (midpoint between 100% and the lowest measured viability); higher = less toxic
[13] = system: Vero E6; experiment: drug sensitivity score (DSS) for viability; higher = more toxic; extreme values may be limits of the assay
[14] = system: U2OS; experiment: as above
[15] = system: Vero E6; experiment: relative viability EC50 (midpoint between 100% and the lowest measured viability); higher = less toxic

| Compound | cell viability ([1]; 1 nM) [%] | cell viability ([1]; 10 nM) [%] | cell viability ([1]; 100 nM) [%] | cell viability ([1]; 1000 nM) [%] | cell viability ([1]; 10000 nM) [%] | cell viability ([2]; 1 nM) [%] | cell viability ([2]; 10 nM) [%] | cell viability ([2]; 100 nM) [%] | cell viability ([2]; 1000 nM) [%] | cell viability ([2]; 10000 nM) [%] | cell viability ([3]; 1 nM) [%] | cell viability ([3]; 10 nM) [%] | cell viability ([3]; 100 nM) [%] | cell viability ([3]; 1000 nM) [%] | cell viability ([3]; 10000 nM) [%] | relative viability EC50 [4] [nM] | relative viability EC50 [5] [nM] | relative viability EC50 [6] [nM] | drug sensitivity score [7] | drug sensitivity score [8] | drug sensitivity score [9] | cell viability ([10]; 1 nM) [%] | cell viability ([10]; 10 nM) [%] | cell viability ([10]; 100 nM) [%] | cell viability ([10]; 1000 nM) [%] | cell viability ([10]; 10000 nM) [%] | cell viability ([11]; 1 nM) [%] | cell viability ([11]; 10 nM) [%] | cell viability ([11]; 100 nM) [%] | cell viability ([11]; 1000 nM) [%] | cell viability ([11]; 10000 nM) [%] | relative viability EC50 [12] [nM] | drug sensitivity score [13] | drug sensitivity score [14] | relative viability EC50 [15] [nM] |
| --- | --- | --- | --- | --- | --- | --- | --- | --- | --- | --- | --- | --- | --- | --- | --- | --- | --- | --- | --- | --- | --- | --- | --- | --- | --- | --- | --- | --- | --- | --- | --- | --- | --- | --- | --- |
| OCCn1cc(-c2ccc3c(c2)CC/C3=N\O)c(-c2ccncc2)n1 [GDC-0879] | 98.8 | 89.4 | 94.1 | 101 | 104 | 90.6 | 100 | 87.2 | 74.3 | 25 | 102 | 94.5 | 95.2 | 107 | 104 | > 10000 | 1450 | > 10000 | 0 | 7 | 0 | – | – | – | – | – | – | – | – | – | – | – | – | – | – |
| C#Cc1cccc(Nc2ncnc3cc(OCCOC)c(OCCO)cc23)c1 [OSI-420] | 106 | 101 | 101 | 86.9 | 76.6 | 110 | 102 | 100 | 104 | 76.7 | 115 | 103 | 73.8 | 48.6 | 47 | > 10000 | > 10000 | 101 | 2.3 | 0.6 | 13.1 | 103 | 105 | 98.2 | 79 | 65.1 | 96.7 | 99.8 | 97.6 | 94.2 | 85.1 | > 10000 | 4 | 0.3 | – |
| Cc1ncc(C)n2nc([C@@H]3C[C@H]3c3nc4c5cccnc5ccn4c3C)nc12 [PDE10-IN-1] | – | – | – | – | – | 98.7 | 105 | 96.1 | 115 | 98.1 | 106 | 98 | 105 | 114 | 117 | – | > 10000 | > 10000 | – | 0 | 0 | 93.5 | 98.2 | 99.6 | 99.3 | 105 | 98.6 | 95.5 | 100 | 95.9 | 97.9 | > 10000 | 0 | 0 | > 10000 |
| Cn1c(Nc2ccc(C(F)(F)F)cc2)nc2cc(Oc3ccnc(-c4ncc(C(F)(F)F)[nH]4)c3)ccc21 [RAF265] | 100 | 98.3 | 81.8 | 66.3 | 28.8 | 92.1 | 94.7 | 80 | 44.5 | 13.2 | 98 | 91.2 | 94 | 70.9 | 62.2 | 721 | 435 | – | 8.8 | 13.1 | 5.6 | 102 | 99.7 | 99.8 | 77.9 | 51.6 | 94.9 | 102 | 95.3 | 87.3 | 46.5 | 1590 | 5.4 | 4.9 | – |
| CC(C)(O)CC(=O)NCCn1ccc2ncnc(Nc3ccc(Oc4cccc(C(F)(F)F)c4)c(Cl)c3)c21 [TAK-285] | 103 | 90.9 | 92.8 | 85 | 70 | 106 | 110 | 113 | 105 | 81.1 | 109 | 93.7 | 76.1 | 48.2 | 31 | – | > 10000 | 228 | 2.9 | 0.3 | 12.6 | 95.7 | 92.8 | 92.6 | 78.2 | 37.8 | 99.1 | 96.2 | 95 | 95.9 | 80.2 | > 10000 | 5.9 | 1 | 1410 |
| Cn1c(=O)c(F)c(Nc2ccc(I)cc2F)c2c(=O)n(C[C@@H](O)CO)cnc21 [TAK-733] | 89.4 | 84.6 | 70.7 | 66.4 | 58.7 | 88.1 | 41.2 | 24.8 | 19.5 | 17.2 | 88.5 | 74.4 | 53.3 | 31.8 | 24.6 | – | 4.7 | 32.3 | 11.2 | 33.3 | 21.1 | 96.9 | 82.9 | 62.3 | 51.6 | 42.2 | 94.5 | 98.7 | 85.9 | 36 | 10.8 | 435 | 15.2 | 13.8 | 42 |
| O=C(Nc1cc(Oc2cc(F)c(NC(=O)C3(C(=O)Nc4ccc(F)cc4)CC3)cc2F)ccn1)C1CC1 [altiratinib] | 113 | 106 | 104 | 101 | 99.3 | 107 | 103 | 94.7 | 35.8 | 58.5 | 98.5 | 110 | 97.1 | 109 | 95.5 | > 10000 | 250 | > 10000 | 0 | 12.6 | 0 | – | – | – | – | – | – | – | – | – | – | – | – | – | – |
| COC(=O)C1=C(C)NC(C)=C(C(=O)OC2CCCN(Cc3ccccc3)C2)C1c1cccc([N+](=O)[O-])c1 (centres undefined) [benidipine] | 97.7 | 108 | 101 | 97 | 64.4 | 109 | 101 | 105 | 105 | 80.2 | 99 | 98.8 | 106 | 102 | 77.8 | – | > 10000 | > 10000 | 2.1 | 0.4 | 0.6 | 102 | 101 | 106 | 99 | 104 | 100 | 102 | 93.8 | 99.6 | 81.7 | > 10000 | 0 | 0.5 | > 10000 |
| Cc1ccc2c(Br)cc(Br)c(OC(=O)c3ccccc3)c2n1 [broxaldine] | 84.9 | 100 | 84.9 | 93.8 | 29.2 | 111 | 95.5 | 116 | 93.7 | 19.6 | 103 | 99.8 | 87.6 | 97.4 | 66.5 | 2440 | 2530 | – | 4.9 | 5.4 | 2 | 109 | 108 | 109 | 98.3 | 54.8 | 98.2 | 102 | 98 | 92.7 | 42.4 | 2140 | 2.5 | 4.3 | – |
| Cc1cc(C2CCCCC2)n(O)c(=O)c1 [ciclopirox] | 99.9 | 90.1 | 96 | 77 | 38.7 | 91.8 | 96.4 | 95.9 | 85.9 | 27.2 | 108 | 109 | 94.3 | 95.7 | 44.8 | 1310 | 1760 | 2520 | 6.1 | 6.3 | 3.6 | 94.6 | 100 | 90.1 | 89.6 | 63.4 | 105 | 95.2 | 101 | 87.9 | 52.1 | – | 2.7 | 4.4 | – |
| N#CCNC(=O)c1ccc(-c2ccnc(Nc3ccc(N4CCOCC4)cc3)n2)cc1 [cyt387] | 99.5 | 103 | 101 | 103 | 61.8 | 109 | 105 | 101 | 88.7 | 21.6 | – | – | – | – | – | – | 2020 | – | 1.6 | 6.2 | – | 102 | 100 | 96.6 | 94.7 | 52.5 | 99.9 | 107 | 99.4 | 95.6 | 36.6 | 2600 | 3.4 | 4.1 | – |
| CCN(CC)S(=O)(=O)c1ccc(C(=O)O)cc1 [etebenecid] | 99.7 | 110 | 107 | 92.5 | 108 | 109 | 110 | 98.4 | 112 | 101 | 110 | 93.9 | 106 | 95.2 | 111 | > 10000 | > 10000 | > 10000 | 0 | 0 | 0 | – | – | – | – | – | – | – | – | – | – | – | – | – | – |
| CCc1nc(C(N)=O)c(Nc2ccc(N3CCC(N4CCN(C)CC4)CC3)c(OC)c2)nc1NC1CCOCC1 [gilteritinib] | 110 | 98.1 | 102 | 90.2 | 54.4 | 99.2 | 92.1 | 92.4 | 73.5 | 27.9 | 96.4 | 95.8 | 96.3 | 94.1 | 59.8 | – | 1360 | – | 3.9 | 7 | 3 | 106 | 103 | 100 | 101 | 37.2 | 105 | 102 | 99.1 | 93.1 | 46 | 2120 | 3.3 | 4.1 | 3250 |
| Cc1ccccc1C(=O)Nc1ccc(C(=O)N2CCCC(N(C)C)c3ccccc32)cc1 (centres undefined) [mozavaptan] | 97 | 99.8 | 88.8 | 76.6 | 70.2 | 98.2 | 99.5 | 93.3 | 99.5 | 44.3 | 94.9 | 109 | 95.6 | 105 | 64.9 | – | 3100 | – | 4.7 | 3.1 | 1.4 | 100 | 103 | 98.3 | 98.4 | 51.6 | 98.1 | 102 | 94.5 | 98 | 48.8 | 2870 | 2.7 | 3 | – |
| C[C@](O)(COc1ccc(C#N)cc1)C(=O)Nc1ccc(C#N)c(C(F)(F)F)c1 [ostarine] | – | – | – | – | – | 107 | 107 | 103 | 109 | 92.8 | 109 | 98.9 | 99.4 | 95.9 | 97.9 | – | > 10000 | > 10000 | – | 0 | 0 | – | – | – | – | – | – | – | – | – | – | – | – | – | – |
| CCCCCCCC/C=C/C(=O)O [trans-2-undecenoic-acid] | 109 | 105 | 108 | 93.5 | 98.9 | 106 | 104 | 101 | 105 | 95.8 | 104 | 95.1 | 96.4 | 104 | 108 | > 10000 | > 10000 | > 10000 | 0 | 0 | 0 | – | – | – | – | – | 101 | 97 | 102 | 100 | 99.5 | > 10000 | – | 0 | – |

Source: the supplement of paper PMC13380429
